Experimental data: patent US20230159546A1, “NOVEL SPIROPYRROLIDINE DERIVED ANTIVIRAL AGENTS” (Enanta Pharmaceuticals, Inc., priority 2021, published 2023)
Like-named read-outs stand apart in the source and are kept apart here.

Assays:
[1] = target: SARS-CoV-2 3CL-protease (Severe acute respiratory syndrome coronavirus 2, UniProt P0DTD1); assay: SARS-CoV-2 3C-like (3CL) protease fluorescence assay (FRET); assay type: biochemical; conditions: recombinant SARS-CoV-2 3CL-protease 10 nM, 30 min preincubation at RT, duplicate; read-out: FRET IC50
[2] = tested on: 229E human corona virus (hCoV); assay: 229E live virus assay (CPE, ATPlite readout, MRC-5 cells); assay type: cell-based, hCoV-229E; conditions: Human coronavirus 229E, MRC5, 144 h, read-out: 229E EC50
[3] = MRC-5 cells, MOI 0.05, 6 days at 34° C., ATPlite, duplicate

| SMILES | IC50 [1] | EC50 [2, 3] | EC50 [2] |
| --- | --- | --- | --- |
| CN(C(=O)C(Cc1ccccc1)C(=O)N1C[C@]2(C[C@H]1C#N)C(=O)Nc1ccccc12)c1ccccc1 (stereo partly drawn) [Example 22] | > 1 µM | > 1 µM | – |
| CC(C)C[C@H](C(=O)Nc1cc(F)cc(F)c1)C(=O)N1C[C@]2(C[C@H]1C#N)C(=O)Nc1ccccc12 (single isomer, unassigned) [Example 12] | > 1 µM | > 1 µM | – |
| CC(C)CC(F)(C(=O)Nc1cc(F)cc(F)c1)C(=O)N1C[C@]2(C[C@H]1C#N)C(=O)Nc1ccccc12 (stereo partly drawn) [Example 20] | > 1 µM | > 1 µM | – |
| N#C[C@@H]1C[C@@]2(CN1C(=O)C(F)(Cc1ccccc1)C(=O)Nc1cc(F)cc(F)c1)C(=O)Nc1ccccc12 (stereo partly drawn) [Example 28] | > 1 µM | > 1 µM | – |
| N#C[C@@H]1C[C@@]2(CN1C(=O)C(Cc1ccccc1)C(=O)Nc1cc(F)cc(F)c1)C(=O)Nc1ccccc12 (stereo partly drawn) [Example 23] | 0.1 to 1 µM | > 1 µM | – |
| N#C[C@@H]1C[C@@]2(CN1C(=O)NC1CC1)C(=O)Nc1ccccc12 [Example 48] | > 1 µM | – | > 1 µM |
| N#C[C@@H]1C[C@@]2(CN1C(=O)NC1CCCC1)C(=O)Nc1ccccc12 [Example 49] | > 1 µM | 0.1 to 1 µM | – |
| N#C[C@@H]1C[C@@]2(CN1CC1CCCCC1)C(=O)Nc1ccccc12 [Example 39] | > 1 µM | > 1 µM | – |
| N#C[C@@H]1C[C@@]2(CN1C(=O)NCc1ccccc1)C(=O)Nc1ccccc12 [Example 51] | > 1 µM | 0.1 to 1 µM | – |
| N#C[C@@H]1C[C@@]2(CN1C(=O)[C@H](Cc1ccccc1)C(=O)Nc1cc(F)cc(F)c1)C(=O)Nc1ccccc12 [Example 26] | > 1 µM | > 1 µM | – |
| CC(C(=O)Nc1cc(F)cc(F)c1)C(=O)N1C[C@]2(C[C@H]1C#N)C(=O)Nc1ccccc12 (stereo partly drawn) [Example 17] | > 1 µM | > 1 µM | – |
| CC(C)CC(C(=O)Nc1c(F)cccc1Cl)C(=O)N1C[C@]2(C[C@H]1C#N)C(=O)Nc1ccccc12 (stereo partly drawn) [Example 10] | > 1 µM | > 1 µM | – |
| CC(C)CC(C(=O)Nc1ccc(F)cc1F)C(=O)N1C[C@]2(C[C@H]1C#N)C(=O)Nc1ccccc12 (stereo partly drawn) [Example 8] | > 1 µM | > 1 µM | – |
| CC(C)CC(C(=O)Nc1ccc(-c2ccccc2)cc1)C(=O)N1C[C@]2(C[C@H]1C#N)C(=O)Nc1ccccc12 (stereo partly drawn) [Example 14] | > 1 µM | > 1 µM | – |
| N#C[C@@H]1C[C@@]2(CN1C(=O)C(F)(Cc1ccccc1)C(=O)Nc1ccccc1)C(=O)Nc1ccccc12 (stereo partly drawn) [Example 27] | > 1 µM | > 1 µM | – |
| N#C[C@@H]1C[C@@]2(CN1C(=O)c1ccc3cccnc3c1)C(=O)Nc1ccccc12 [Example 44] | > 1 µM | > 1 µM | – |
| CC(=O)N1C[C@]2(C[C@H]1C#N)C(=O)Nc1ccccc12 [Example 29] | > 1 µM | 0.1 to 1 µM | – |
| N#C[C@@H]1C[C@@]2(CN1C(=O)c1ccc(-c3ccccc3)cc1)C(=O)Nc1ccccc12 [Example 36] | > 1 µM | > 1 µM | – |
| CC(C)CC(C(=O)NC1CC1)C(=O)N1C[C@]2(C[C@H]1C#N)C(=O)Nc1ccccc12 (stereo partly drawn) [Example 3] | > 1 µM | 0.1 to 1 µM | – |
| N#C[C@@H]1C[C@@]2(CN1C(=O)NC1CCCCC1)C(=O)Nc1ccccc12 [Example 38] | > 1 µM | < 0.1 µM | – |
| N#C[C@@H]1C[C@@]2(CN1C(=O)Nc1ccc3cccnc3c1)C(=O)Nc1ccccc12 [Example 52] | > 1 µM | > 1 µM | – |
| CC(C)CC(C(=O)N(C)c1ccccc1)C(=O)N1C[C@]2(C[C@H]1C#N)C(=O)Nc1ccccc12 (stereo partly drawn) [Example 2] | > 1 µM | > 1 µM | – |
| N#C[C@@H]1C[C@@]2(CN1C(=O)Nc1ccccc1)C(=O)Nc1ccccc12 [Example 50] | > 1 µM | > 1 µM | – |
| CC(C)CC(C(=O)Nc1cc2ccccc2[nH]1)C(=O)N1C[C@]2(C[C@H]1C#N)C(=O)Nc1ccccc12 (stereo partly drawn) [Example 4] | > 1 µM | > 1 µM | – |
